# Data reported in patent publication US9732097B2, “Process for the synthesis of a phosphoinositide 3-kinase inhibitor” (Incyte Corporation, priority 2015, dated 2017).
# Columns and labels:
# human JAK1 = human JAK1 (Homo sapiens, UniProt P23458); assay: In vitro JAK kinase assay (Example D, HTRF), JAK1; format: biochemical; settings: 1 mM ATP
# human JAK2 = human JAK2 (Homo sapiens (Human), UniProt O60674); assay: In vitro JAK kinase assay (Example D, HTRF), JAK2; format: biochemical; settings: ratio of JAK2 to JAK1 IC50, 1 mM ATP
# human JAK2, sequence (O60674 828-1132): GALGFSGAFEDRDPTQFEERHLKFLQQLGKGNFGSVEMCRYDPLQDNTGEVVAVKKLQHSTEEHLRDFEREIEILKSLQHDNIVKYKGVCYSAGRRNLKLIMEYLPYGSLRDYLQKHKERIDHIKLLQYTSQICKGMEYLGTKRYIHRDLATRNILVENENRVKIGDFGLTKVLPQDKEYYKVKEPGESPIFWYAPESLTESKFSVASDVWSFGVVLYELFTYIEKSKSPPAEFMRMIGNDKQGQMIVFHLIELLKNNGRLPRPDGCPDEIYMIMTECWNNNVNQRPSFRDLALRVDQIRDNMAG
IC50 (human JAK1) [nM],JAK2/JAK1 (human JAK2),Compound
< 10,>10,"N#CCC(C1CCN(c2cccc(Cl)n2)C1)n1cc(-c2ncnc3[nH]ccc23)cn1 (single isomer, unassigned) [compound 3, 3-[1-(6-chloropyridin-2-yl)pyrrolidin-3-yl]-3-[4-(7H-pyrrolo[2,3-d]pyrimidin-4-yl)-1H-pyrazol-1-yl]propanenitrile]"
< 100,>10,"C[C@@H](O)c1nc2cnc3ccsc3c2n1[C@H]1CC[C@H](CC#N)OC1 [compound 1, ((2R,5S)-5-{2-[(1R)-1-hydroxyethyl]-1H-imidazo[4,5-d]thieno[3,2-b]pyridin-1-yl}tetrahydro-2H-pyran-2-yl)acetonitrile]"
< 10,>10,"N#CCC(C1CCN(c2nc3cccnc3o2)C1)n1cc(-c2ncnc3[nH]ccc23)cn1 (stereo not drawn) [compound 4, 3-(1-[1,3]oxazolo[5,4-b]pyridin-2-ylpyrrolidin-3-yl)-3-[4-(7H-pyrrolo[2,3-d]pyrimidin-4-yl)-1H-pyrazol-1-yl]propanenitrile]"
< 10,>10,"N#CCC(CN1CCN(C(=O)c2ccc(C#N)cc2F)CC1)n1cc(-c2ncnc3[nH]ccc23)cn1 (stereo not drawn) [compound 5, 4-[(4-{3-cyano-2-[4-(7H-pyrrolo[2,3-d]pyrimidin-4-yl)-1H-pyrazol-1-yl]propyl}piperazin-1-yl)carbonyl]-3-fluorobenzonitrile]"
< 10,>10,"N#CCC(CN1CCN(C(=O)c2ccc(C#N)cc2F)CC1)n1ccc(-c2ncnc3[nH]ccc23)c1 (stereo not drawn) [compound 6, 4-[(4-{3-cyano-2-[3-(7H-pyrrolo[2,3-d]pyrimidin-4-yl)-1H-pyrrol-1-yl]propyl}piperazin-1-yl)carbonyl]-3-fluorobenzonitrile]"
< 10,>10,"N#CCC1(n2cc(-c3ncnc4[nH]ccc34)cn2)CN(C2CCN(C(=O)c3ccnc(C(F)(F)F)c3F)CC2)C1 [compound 7, {1-{1-[3-Fluoro-2-(trifluoromethyl)isonico-tinoyl]piperidin-4-yl}-3-[4-(7H-pyrrolo[2,3-d]pyrimidin-4-yl)-1H-pyrazol-1-yl]azetidin-3-yl}acetonitrile]"
< 10,>10,"N#CCC1(n2cc(-c3ncnc4[nH]ccc34)cn2)CN(C2CCN(C(=O)Nc3ccc(F)cc3C(F)(F)F)CC2)C1 [compound 8, 4-{3-(Cyanomethyl)-3-[4-(7H-pyrrolo[2,3-d]pyrimidin-4-yl)-1H-pyrazol-1-yl]azetidin-1-yl}-N-[4-fluoro-2-(trifluoromethyl)phenyl] piperidine-1-carboxamide]"
< 10,>10,"N#CCC1(n2cc(-c3ncnc4[nH]ccc34)cn2)CN(C2CCN(C(=O)c3ccnc(C(F)(F)F)n3)CC2)C1 [compound 9, [3-[4-(7H-pyrrolo[2,3-d]pyrimidin-4-yl)-1H-pyrazol-1-yl]-1-(1-{[2-(trifluoromethyl)pyrim-idin-4-yl]carbonyl}piperidin-4-yl)azetidin-3-yl]acetonitrile]"
< 10,>10,"N#CC[C@]1(n2cc(-c3ncnc4[nH]ccc34)cn2)C[C@H](N2CCN(C(=O)c3ccnc(C(F)(F)F)n3)CC2)C1 [compound 10, [trans-1-[4-(7H-pyrrolo[2,3-d]pyrimidin-4-yl)-1H-pyrazol-1-yl]-3-(4-{[2-(trifluoromethyl)pyrim-idin-4-yl]carbonyl}piperazin-1-yl)cyclobutyl]acetonitrile]"
< 10,>10,"N#CC[C@]1(n2cc(-c3ncnc4[nH]ccc34)cn2)C[C@H](N2CCC(Oc3cc(CN4CC(O)C4)cc(C(F)(F)F)n3)CC2)C1 [compound 11, {trans-3-(4-{[4-[(3-hydroxyazetidin-1-yl)methyl]-6-(trifluoromethyl)pyridin-2-yl]oxy}piperidin-1-yl)-1-[4-(7H-pyrrolo[2,3-d]pyrimidin-4-yl)-1H-pyrazol-1-yl]cyclobutyl}acetonitrile]"
< 10,>10,"N#CC[C@]1(n2cc(-c3ncnc4[nH]ccc34)cn2)C[C@H](N2CCC(Oc3cc(CN4CCC[C@H]4CO)cc(C(F)(F)F)n3)CC2)C1 [compound 12, {trans-3-(4-{[4-{[(2S)-2-(hydroxymethyl)pyrrolidin-1-yl]methyl}-6-(trifluoromethyl)pyridin-2-yl]oxy}piperidin-1-yl)-1-[4-(7H-pyrrolo[2,3-d]pyrimidin-4-yl)-1H-pyrazol-1-yl]cyclobutyl}acetonitrile]"
< 10,>10,"N#CC[C@]1(n2cc(-c3ncnc4[nH]ccc34)cn2)C[C@H](N2CCC(Oc3cc(CN4CCC[C@@H]4CO)cc(C(F)(F)F)n3)CC2)C1 [compound 13, {trans-3-(4-{[4-{[(2R)-2-(hydroxymethyl)pyrrolidin-1-yl]methyl}-6-(trifluoromethyl)pyridin-2-yl]oxy}piperidin-1-yl)-1-[4-(7H-pyrrolo[2,3-d]pyrimidin-4-yl)-1H-pyrazol-1-yl]cyclobutyl}acetonitrile]"
< 10,>10,"C[C@H](NC(=O)c1cc(F)c(N2CC(CC#N)(n3cc(-c4ncnc5[nH]ccc45)cn3)C2)cc1F)C(F)(F)F [compound 16, 4-{3-(cyanomethyl)-3-[4-(7H-pyrrolo[2,3-d]pyrimidin-4-yl)-1H-pyrazol-1-yl]azetidin-1-yl}-2,5-difluoro-N-[(1S)-2,2,2-trifluoro-1-methylethyl]benzamide]"
< 10,>10,"N#CCC1(n2cc(-c3ncnc4[nH]ccc34)cn2)CN([C@H]2CC[C@@H](Oc3cc(CCO)nc(C(F)(F)F)n3)CC2)C1 [compound 18, {1-(cis-4-{[6-(2-hydroxyethyl)-2-(trifluoromethyl)pyrimidin-4-yl]oxy}cyclohexyl)-3-[4-(7H-pyrrolo[2,3-d]pyrimidin-4-yl)-1H-pyrazol-1-yl]azetidin-3-yl}acetonitrile]"
< 10,>10,"CCNCc1cc(O[C@H]2CC[C@@H](N3CC(CC#N)(n4cc(-c5ncnc6[nH]ccc56)cn4)C3)CC2)nc(C(F)(F)F)c1 [compound 19, {1-(cis-4-{[4-[(ethylamino)methyl]-6-(trifluoromethyl)pyridin-2-yl]oxy}cyclohexyl)-3-[4-(7H-pyrrolo[2,3-d]pyrimidin-4-yl)-1H-pyrazol-1-yl]azetidin-3-yl]acetonitrile]"
< 10,>10,"N#CCC1(n2cc(-c3ncnc4[nH]ccc34)cn2)CN([C@H]2CC[C@@H](Oc3cc(CN4CC[C@@H](O)C4)cc(C(F)(F)F)n3)CC2)C1 [compound 21, {1-(cis-4-{[4-{[(3R)-3-hydroxypyrrolidin-1-yl]methyl}-6-(trifluoromethyl)pyridin-2-yl]oxy}cyclohexyl)-3-[4-(7H-pyrrolo[2,3-d]pyrimidin-4-yl)-1H-pyrazol-1-yl]azetidin-3-yl}acetonitrile]"
< 10,>10,"N#CCC1(n2cc(-c3ncnc4[nH]ccc34)cn2)CN([C@H]2CC[C@@H](Oc3cc(CN4CC[C@H](O)C4)cc(C(F)(F)F)n3)CC2)C1 [compound 22, {1-(cis-4-{[4-{[(3S)-3-hydroxypyrrolidin-1-yl]methyl}-6-(trifluoromethyl)pyridin-2-yl]oxy}cyclohexyl)-3-[4-(7H-pyrrolo[2,3-d]pyrimidin-4-yl)-1H-pyrazol-1-yl]azetidin-3-yl}acetonitrile]"
< 10,>10,"C[C@@H](CO)NCc1cc(OC2CCN([C@H]3C[C@](CC#N)(n4cc(-c5ncnc6[nH]ccc56)cn4)C3)CC2)nc(C(F)(F)F)c1 [compound 23, {trans-3-(4-{[4-({[(1S)-2-hydroxy-1-methylethyl]amino}methyl)-6-(trifluoromethyl)pyridin-2-yl]oxy}piperidin-1-yl)-1-[4-(7H-pyrrolo[2,3-d]pyrimidin-4-yl)-1H-pyrazol-1-yl]cyclobutyl}acetonitrile]"
< 10,>10,"C[C@@H](O)CNCc1cc(OC2CCN([C@H]3C[C@](CC#N)(n4cc(-c5ncnc6[nH]ccc56)cn4)C3)CC2)nc(C(F)(F)F)c1 [compound 24, {trans-3-(4-{[4-({[(2R)-2-hydroxypropyl]amino}methyl)-6-(trifluoromethyl)pyridin-2-yl]oxy}piperidin-1-yl)-1-[4-(7H-pyrrolo[2,3-d]pyrimidin-4-yl)-1H-pyrazol-1-yl]cyclobutyl}acetonitrile]"
< 10,>10,"C[C@H](O)CNCc1cc(OC2CCN([C@H]3C[C@](CC#N)(n4cc(-c5ncnc6[nH]ccc56)cn4)C3)CC2)nc(C(F)(F)F)c1 [compound 25, {trans-3-(4-{[4-({[(2S)-2-hydroxypropyl]amino}methyl)-6-(trifluoromethyl)pyridin-2-yl]oxy}piperidin-1-yl)-1-[4-(7H-pyrrolo[2,3-d]pyrimidin-4-yl)-1H-pyrazol-1-yl]cyclobutyl}acetonitrile]"
< 10,>10,"N#CC[C@]1(n2cc(-c3ncnc4[nH]ccc34)cn2)C[C@H](N2CCC(Oc3cc(CCO)cc(C(F)(F)F)n3)CC2)C1 [compound 26, {trans-3-(4-{[4-(2-hydroxyethyl)-6-(trifluoromethyl)pyridin-2-yl]oxy}piperidin-1-yl)-1-[4-(7H-pyrrolo[2,3-d]pyrimidin-4-yl)-1H-pyrazol-1-yl]cyclobutyl}acetonitrile]"
